One assay has as its system HepG2 WFS1 KO. As to the kind of experiment: In vitro cell viability (CellTiter-Glo), HepG2 WFS1 KO. Type of assay: cell-based. To be noted: Homo sapiens; HepG2 WFS1 knockout, 96 hours; read-out: HepG2 WFS1 KO viability. The text has this:
A double cleavage strategy was employed to remove large fragments from the WFS1 locus. Suitable target sites in WFS1 exon 8 were first selected using CRISPR design software to rank suitable target sites and computationally predict off-target sites for each intended target. Six top guide RNA sequences are identified and screened for activity using the Surveyor Mutation Detection Kit (Integrated DNA Technologies). Then, the best 2 guide RNAs were cloned into GeneArt OFP CRISPR nuclease vectors (Thermofisher, Cat #A21174) separately and co-transfected into HepG2 cells using nucleofection (4D Nucleofector X, Lonza). Cells were sorted by FACS 48 hrs later to enrich for the OFP positive cell population. The OFP positive cell population were plated into 96-well plates at 0.5-5 cells/well to isolate clonal cell lines. After allowing cells to expand for 2-3 weeks, plates were inspected for presence of colonies. When colonies became more than 70% confluent, they were dissociated with trypsin and were further expanded. Cell clones with homozygous double cleavage of WFS1 exon 8 were detected with PCR and confirmed with DNA sequencing.
HEK293 cells containing empty pCLPCx vector (HEK293 empty), HEK293 cells stably over-expression WFS1 (HEK293 WFS1), HepG2, and HepG2 cells where WFS1 was depleted via CRISPR/Cas9 (HepG2 WFS1 KO) cells were plated into 96-well black plates (Corning, product #3904) in 100 microliters of complete DMEM cell culture media [DMEM (Life Technologies, product #11960-051) media supplemented with 10% FBS (Hyclone, catalog #SH30071.03), antimycotic/antibiotic (Life Technologies, product #15240-062), and Glutamax (Life Technologies, product #35050-061)] at 1,000 (HEK293) or 5,000 (HepG2) cells per well. Cells were allowed to attach and grow overnight, after which compounds are added at various concentrations. Cell viability was assessed 96 hrs after compound addition with CellTiter-Glo reagent (Promega, catalog #G7570) according to manufacturer's protocol and measurement on a Pherastar luminescence plate reader (BMG Labtech).
To determine the effect of WFS1 depletion on compound mediated inhibition of cell viability, parental HepG2 cells and HepG2 cells where WFS1 was deleted by CRISPR/Cas9 were exposed to increasing concentrations of either Compound 136 or Compound 253 for 96 hours after which time viability was determined using Cell Titer Glo reagent (Promega). […] The IC50s for the viability of both the HepG2 parental and WFS1 knockout cells are summarized in Table 47: A<0.5 μM; 0.5 μM≤<2.0 μM; 2.0 μM≤C<10.0 μM; D≥[…].
(In ATP-based viability assays light output follows the ATP content of the culture.)

Assay [1] relates to Colo205-TCF/LEF-Luciferase (Luc) tumor. As to the kind of experiment: In vivo inhibition of TCF/LEF reporter activity in Colo-205 tumors. Also noted: concentration or dose not given beside the values. To be noted: TCF/LEF luciferase reporter in Colo-205 tumors, nu/nu mice, oral gavage. The method in brief: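 Female nu/nu mice carried subcutaneous Colo205-TCF/LEF-luciferase tumours (200–500 mm^3), n=4 per group. Compound was given by oral gavage in 1:3:5:1 EtOH:DMSO:PEG-400:H2O at 10 ml/kg, with vehicle as control. Luciferase activity in tumour lysates (Steady-Glo) was normalised to BCA protein.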
(Reporter assays use an easily measured gene product as a stand-in for the process of interest.)

The structures appear in SMILES notation. pIC50: −log10 of the molar value. Some results are limits rather than exact numbers.

For `Cc1nc(NCc2cnn(CCc3ccc(F)cc3)c2)nc2c1NC(=O)[C@H](C)N2C` [Compound 6, (7S)-2-(((1-(4-fluorophenethyl)-1H-pyrazol-4-yl)methyl)amino)-4,7,8-trimethyl-7,8-dihydropteridin-6(5H)-one], the pIC50 in the assay on HepG2 WFS1 KO was not above 5.00.

Consider `Cc1nc(NCc2cnn(CC3CCC3)c2)nc2c1N(C)C(=O)[C@H](C)N2C` [Compound 7, (7S)-2-(((1-(cyclobutylmethyl)-1H-pyrazol-4-yl)methyl)amino)-4,5,7,8-tetramethyl-7,8-dihydropteridin-6(5H)-one], for which the pIC50 with HepG2 WFS1 KO is not above 5.00.

Turning to `Cc1nc(NCc2cnn(CCc3ccc(F)cc3)c2)nc2c1N(C)C(=O)[C@H](C)N2C` [Compound 8, (7S)-2-(((1-(4-fluorophenethyl)-1H-pyrazol-4-yl)methyl)amino)-4,5,7,8-tetramethyl-7,8-dihydropteridin-6(5H)-one], in the assay on HepG2 WFS1 KO, the pIC50 is not above 5.00.

Take `CC[C@H]1C(=O)Nc2cnc(NCc3cnn(Cc4ccc(F)cc4)c3)nc2N1C` [Compound 9, (7S)-7-ethyl-2-(((1-(4-fluorobenzyl)-1H-pyrazol-4-yl)methyl)amino)-8-methyl-7,8-dihydropteridin-6(5H)-one]: the pIC50 with HepG2 WFS1 KO is not above 5.00.

Turning to `Cc1nc(NCc2cnn(C[C@H](C)c3ccc(F)cc3)c2)nc2c1NC(=O)[C@H](C)N2C` [Compound 96, (7S)-2-(((1-((R)-2-(4-fluorophenyl)propyl)-1H-pyrazol-4-yl)methyl)amino)-4,7,8-trimethyl-7,8-dihydropteridin-6(5H)-one], the pIC50 with HepG2 WFS1 KO is not above 5.00.

Turning to `Cc1nc(NCc2cnn(CCC3CCOCC3)c2)nc2c1NC(=O)[C@H](C)N2C` [Compound 115, (7S)-4,7,8-trimethyl-2-(((1-(2-(tetrahydro-2H-pyran-4-yl)ethyl)-1H-pyrazol-4-yl)methyl)amino)-7,8-dihydropteridin-6(5H)-one], the pIC50 with HepG2 WFS1 KO was not above 5.00.

Regarding `CCOc1ccc(CCn2cc(CNc3ncc4c(n3)N(C)[C@@H](C)C(=O)N4)cn2)cc1` [Compound 121, (7S)-2-(((1-(4-ethoxyphenethyl)-1H-pyrazol-4-yl)methyl)amino)-7,8-dimethyl-7,8-dihydropteridin-6(5H)-one], in the assay with HepG2 WFS1 KO, the pIC50 was not above 5.00.

As to `Cc1nc(NCc2cnn(C3CCN(C(=O)c4ccc(F)cc4)CC3)c2)nc2c1NC(=O)[C@H](C)N2C` [Compound 125, (7S)-2-(((1-(1-(4-Fluorobenzoyl)piperidin-4-yl)-1H-pyrazol-4-yl)methyl)amino)-4,7,8-trimethyl-7,8-dihydropteridin-6(5H)-one], the pIC50 with HepG2 WFS1 KO is not above 5.00.

Regarding `Cc1nc(NCc2cnn(CC(C)(O)c3ccc(F)cc3)c2)nc2c1NC(=O)[C@H](C)N2C` (stereo partly drawn) [Compound 128, (7S)-2-(((1-(2-(4-fluorophenyl)-2-hydroxypropyl)-1H-pyrazol-4-yl)methyl)amino)-4,7,8-trimethyl-7,8-dihydropteridin-6(5H)-one], the pIC50 in the assay on HepG2 WFS1 KO is not above 5.00.

As to `Cc1nn(C)cc1Cn1cc(CNc2nc(C)c3c(n2)N(C)[C@@H](C)C(=O)N3)cn1` [Compound 139, (7S)-2-(((1-((1,3-dimethyl-1H-pyrazol-4-yl)methyl)-1H-pyrazol-4-yl)methyl)amino)-4,7,8-trimethyl-7,8-dihydropteridin-6(5H)-one], the pIC50 with HepG2 WFS1 KO is not above 5.00.

`Cc1ncc(Cn2cc(CNc3nc(C)c4c(n3)N(C)[C@@H](C)C(=O)N4)cn2)cn1` [Compound 163, (7S)-4,7,8-trimethyl-2-(((1-((2-methylpyrimidin-5-yl)methyl)-1H-pyrazol-4-yl)methyl)amino)-7,8-dihydropteridin-6(5H)-one]: the pIC50 in the assay on HepG2 WFS1 KO is not above 5.00.

Consider `Cc1cnc(C(F)(F)F)nc1-n1cc(CNc2ncc3c(n2)N(C)[C@@H](C)C(=O)N3)cn1` [Compound 164, (7S)-7,8-dimethyl-2-(((1-(5-methyl-2-(trifluoromethyl)pyrimidin-4-yl)-1H-pyrazol-4-yl)methyl)amino)-7,8-dihydropteridin-6(5H)-one], for which, in the assay with HepG2 WFS1 KO, the pIC50 was not above 5.00.

In the case of `Cc1nc(NCc2cnn(Cc3ccc(F)cc3)c2)nc2c1NC(=O)C1(CC1)N2` [Compound 222, 2′-(((1-(4-fluorobenzyl)-1H-pyrazol-4-yl)methyl)amino)-4′-methyl-5′,8′-dihydro-6′H-spiro[cyclopropane-1,7′-pteridin]-6′-one], the pIC50 with HepG2 WFS1 KO was not above 5.00.

For `Cc1nc(N[C@H]2C[C@@H](Oc3cc(F)c(F)c(F)c3)C2)nc2c1NC(=O)[C@H](C)N2C` [Compound 247, (7S)-4,7,8-trimethyl-2-((cis-3-(3,4,5-trifluorophenoxy)cyclobutyl)amino)-7,8-dihydropteridin-6(5H)-one], the pIC50 with HepG2 WFS1 KO was not above 5.00.

`Cc1nc(NCc2cnn(Cc3ccc(C(F)(F)F)nc3)c2)nc2c1NC(=O)[C@H](C)N2C(C)C` [Compound 385, (7S)-8-isopropyl-4,7-dimethyl-2-(((1-((6-(trifluoromethyl)pyridin-3-yl)methyl)-1H-pyrazol-4-yl)methyl)amino)-7,8-dihydropteridin-6(5H)-one]: in assay [1], the “Percent Remaining Activity at 8 hrs after Dosing” value (from here on “Percent Remaining Activity”) stood at 25%.

With `Cc1nc(NCc2cnn(Cc3ccc(C(F)(F)F)nc3)c2)nc2c1NC(=O)[C@H](C1CC1)N2C` [Compound 386, (7S)-7-Cyclopropyl-4,8-dimethyl-2-(((1-((6-(trifluoromethyl)pyridin-3-yl)methyl)-1H-pyrazol-4-yl)methyl)amino)-7,8-dihydropteridin-6(5H)-one], the “Percent Remaining Activity” value in assay [1] was determined as 19%.

Consider `Cc1nc(NCc2cnn(Cc3ccc(C(F)(F)F)nc3C(C)C)c2)nc2c1NC(=O)[C@H](C)N2C` [Compound 388, (7S)-2-(((1-((2-isopropyl-6-(trifluoromethyl)pyridin-3-yl)methyl)-1H-pyrazol-4-yl)methyl)amino)-4,7,8-trimethyl-7,8-dihydropteridin-6(5H)-one], for which the “Percent Remaining Activity” value in assay [1] came out at 13%.

With `CCN1c2nc(NCc3cnn(Cc4ccc(C(F)(F)F)nc4)c3)nc(C)c2NC(=O)[C@@H]1C` [Compound 395, (7S)-8-Ethyl-4,7-dimethyl-2-(((1-((6-(trifluoromethyl)pyridin-3-yl)methyl)-1H-pyrazol-4-yl)methyl)amino)-7,8-dihydropteridin-6(5H)-one], the “Percent Remaining Activity” value in assay [1] turned out to be 19%.

For `Cc1nc(NCc2cnn(Cc3cc(C(F)(F)F)nn3C)c2)nc2c1NC(=O)[C@H](C1CC1)N2C` [Compound 396, (7S)-7-Cyclopropyl-4,8-dimethyl-2-(((1-((1-methyl-3-(trifluoromethyl)-1H-pyrazol-5-yl)methyl)-1H-pyrazol-4-yl)methyl)amino)-7,8-dihydropteridin-6(5H)-one], in assay [1], the “Percent Remaining Activity” value stood at 23%.

With `Cc1nc(NCc2cnn(Cc3cc(C(F)(F)F)nn3C)c2)nc2c1NC(=O)[C@H](C(C)C)N2C` [Compound 397, (7S)-7-Isopropyl-4,8-dimethyl-2-(((1-((1-methyl-3-(trifluoromethyl)-1H-pyrazol-5-yl)methyl)-1H-pyrazol-4-yl)methyl)amino)-7,8-dihydropteridin-6(5H)-one], in assay [1], the “Percent Remaining Activity” value is 23%.

For the compound `Cc1nc(NCc2cnn(Cc3ccc(C(F)(F)F)nc3)c2)nc2c1NC(=O)C1(CCC1)N2C` [Compound 398, 4′,8′-dimethyl-2′-(((1-((6-(trifluoromethyl)pyridin-3-yl)methyl)-1H-pyrazol-4-yl)methyl)amino)-5′,8′-dihydro-6′H-spiro[cyclobutane-1,7′-pteridin]-6′-one], the “Percent Remaining Activity” value in assay [1] was 83%.

Take `Cc1nc(NCc2cn(Cc3ccc(C(F)(F)F)nc3)nc2Br)nc2c1NC(=O)[C@H](C)N2C` [Compound 412, (S)-2-(((3-bromo-1-((6-(trifluoromethyl)pyridin-3-yl)methyl)-1H-pyrazol-4-yl)methyl)amino)-4,7,8-trimethyl-7,8-dihydropteridin-6(5H)-one]: the pIC50 in the assay on HepG2 WFS1 KO is not above 5.00.

Turning to `Cc1nc(NCc2cnn(Cc3cncc(F)c3)c2)nc2c1NC(=O)[C@H](C(C)C)N2C` [Compound 415, (7S)-2-(((1-((5-fluoropyridin-3-yl)methyl)-1H-pyrazol-4-yl)methyl)amino)-7-isopropyl-4,8-dimethyl-7,8-dihydropteridin-6(5H)-one], the pIC50 in the assay on HepG2 WFS1 KO was not above 5.00.

The values are drawn from patent US20230312587A1, “PTERIDINONE COMPOUNDS AND USES THEREOF” (Vertex Pharmaceutical Incorporated, priority 2018, published 2023).
